{"source": "patent US20240116994A1", "about": "“Peptides And Use Thereof For Diagnosing And Treating Antiphospholipid Syndrome” (UNIVERSITE DE GENEVE, priority 2021, published 2024)", "key": {"[1]": {"system": "aPL from a pool of 13 Human patients", "test": "Surface plasmon resonance, aPL flown over biotin-peptide-coated SA chip (BIAcore X100)", "assay_type": "binding", "protocol": "The kinetics and affinity of protein-protein and protein-lipid interactions were determined using a BIAcore X100 instrument. 1 mg/ml of biotin-tagged peptide (ligand) was immobilized using a sensor chip SA (GE Healthcare) surface, whereas aPL from a pool of 13 Human patients were flown as analyte. The first flow cell of the sensor chip was used as a control surface (no protein), whereas the second flow cell was employed as the active surface. A range of dilution of aPL analytes prepared in the same buffer was injected on both flow cell surfaces at a flow rate of 30 μl/min. Association and dissociation times for each protein injection were set at 90 and 120 s, respectively. In all cases, sensorgrams were obtained from three different dilutions of aPL.\nThe de Groot's research group has pointed at the importance of hydrophobic character of the plate during coating of R39-R43 epitope. In order to abrogate of the plate-dependent aPL binding, the Ia-1 and Ib-1 peptides as well as the R39-R43 with a biotin at their N-terminal were synthetized and coated a streptavidin plate. In this configuration, the different peptides are flag oriented in the space preventing any interaction with the plate. It was thus observed that the flag-type orientation of R39-R43-biot leads to 8.52×more interaction with aPL while they show 9.63×more binding for Ib-1-biot presenting the same position. […] The surface plasmon resonance (SPR) technique is used to determine the relative avidity of aPL for R39-R43-biot and Ib-1-biot. The interaction between aPL and immobilized R39-R43-biot or Ib-1-biot is monitored by flowing various concentrations of aPL over a R39-R43-biot- or Ib-1-biot-coated chip surface (FIG. 1C). Through SPR experiments, it appears that aPL avidity for Ib-1-biot presents a resonance unit (RU) of 51.49 at 1/1,000 of dilution and a RU of 27.61 at 1/10,000 of dilution while, at the same dilution, it present a RU of 27.36 and a RU of 17.99 with R39-R43-biot, respectively (FIG. 1C). However, at higher concentrations, the peptides seems to show no differences in the interactions with aPL. […] Considering that IgG valency, it was decided to generate a dimeric Ib-1-biot peptide (Ib-1-biot-2x). This new polypeptide carries thus two optimized epitopes which have the opportunity to interact with two Fab fragment present on aPL. […] At higher concentration, i.e dilution of 1/100, the avidity for dimeric peptide is 28×more than for the monomeric (FIG. 1D).\nIt was performed a peptide substitution scan of Ib-1-biot VSRGGMRKKKKPLTG (SEQ ID NO: 6) carrying the optimized epitope Ib-1-biot and based on an exchange of the underlined amino acid positions with the 20 main amino acids. The resulting peptide microarrays contained 140 different peptides. It was observed that the peptide substitution of the position n° 1, 2, 12 and 15 have significant influences on the ability to interact with aPL from patients 1, 2, 3, 4 and, in particular, form the plasma pool. Indeed, the substitution of the position 1, 12 or 15 by an Arginine (R) or a Lysine (K) increases the avidity of the peptide for all aPL from patients. […] In this context, the enhancement relative to Ib-1.0-biot-2x of identified peptides was evaluated (FIG. 2A). […] However, streptavidin being known to produce unspecific binding, it was used the ratio between aPL and a pool of human plasma as control (B/B0) (FIG. 2B, upper panel). This representation therefore allows to distinguish the real levels of interactions. It was then performed a dilution assay from dilution of 1/100 to 1/1,200,000 and it was observed relevant differences between the different identified peptides. By comparison of area under the curve (AUC), it was possible to detect the most prone-interacting peptide with aPL. Thus, the peptide IIa-8.0-biot-2x obtained the higher AUC (FIG. 2B, bottom panel). […]"}, "[2]": {"system": "binding of aPL to IIa-8.0-biot-2x", "test": "Inhibition experiments: remaining reactivity of pre-treated aPL on IIa-8.0-biot-2x ELISA", "set-up": "species or system Human", "conditions": "aPL preincubated 90 min at RT with beads 15, 30 and 60 pmol", "protocol": "To examine the functional ability of IIa-5.0, IIa-7.1, IIa-8.0 peptides and R39-R43 to inhibit the activity of pool of aPL isolated from APS patients, the remaining reactivity of aPL was evaluated for IIa-8.0-biot-2x which had previously been treated with increasing concentration of peptides. […] The flag-type orientation prevents potential interactions with the plate or with itself, particularly in solution. Streptavidin magnetic beads associated with IIa-5.0-biot-2x, IIa-7.1-biot-2x and Ha-8.0-biot-2x peptides have been generated. aPL was treated with increasing concentrations of beads before to measure the remaining binding activity of aPL on IIa-8.0-biot-2x ELISA (FIG. 7C).\nTo assess the ability of IIa-5.0-2x, IIa-7.1-2x and IIa-8.0-2x to inhibit in vitro the binding of aPL to IIa-8.0-biot-2x. aPL pool sera were preincubated for 90 min at RT with increasing concentrations (1, 10 and 10011 g/ml) of monomeric, dimeric IIa-5.0, IIa-7.1 and IIa-8.0 peptides and of IIa-5.0-biot-2x, IIa-7.1-biot-2x and IIa-8.0-biot-2x-associated beads (15, 30 and 60 pmol). 120 pmol correspond to the amount of IIa-8.0-biot-2x coated in well of Streptavidin Coated High Capacity Plates 96 well plates (Thermofisher). After the pre-incubation time, the serum was added anti-b2GP1 IgG (anti-IIa-8.0-2x) ELISA according to the protocol."}}, "note": "Where no end group is shown, it is not given here.", "data": [{"substance": "IIa-8.0-biot-2x: dimeric biotinylated IIa-8.0 peptide; also used associated with streptavidin magnetic beads (RSRGGMRKRKKPLTGRSRGGMRKRKKPLTG; also: dimeric peptide (two IIa-8.0 copies), biotinylated, site not given here)", "values": [{"measurement": "SPR AUC relative to the initial target R39-43", "setting": "[1]", "result": "> 10", "unit": "×"}, {"measurement": "avidity of aPL relative to avidity for Ib-1.0-biot-2x", "setting": "[1]; all dilutions (FIG. 2C upper panel)", "result": 1.3, "unit": "×"}, {"measurement": "SPR AUC relative to Ib-1.0-biot-2x", "setting": "[1]; dilution 1/100 (FIG. 2C bottom panel)", "result": 2.3, "unit": "×"}, {"measurement": "SPR AUC relative to Ib-1.0-biot-2x", "setting": "[1]; dilution 1/1,000 (FIG. 2C bottom panel)", "result": 3.43, "unit": "×"}, {"measurement": "SPR AUC relative to Ib-1.0-biot-2x", "setting": "[1]; dilution 1/10,000 (FIG. 2C bottom panel)", "result": 10.5, "unit": "×"}, {"measurement": "sustained interaction / stability of binding with aPL (shape of SPR curves)", "setting": "[1]; stabilization curves", "result": "sustained stability of binding is also significantly increased"}, {"measurement": "inhibition of aPL binding to IIa-8.0-biot-2x ELISA by peptide associated with streptavidin magnetic beads", "setting": "[2]", "result": "dose dependently inhibited"}]}]}
